Experimental data published in ChEMBL document CHEMBL1140165, “Rotationally constrained 2,4-diamino-5,6-disubstituted pyrimidines: a new class of histamine H4 receptor antagonists with improved druglikeness and in vivo efficacy in pain and inflammation models” (J Med Chem, 2008).
The source made the active and inactive calls. The calls are words filed in the database; no cut-off is given here.

Legend:
Histamine H4 receptor [1] = target: T1, Histamine H4 receptor (Homo sapiens, UniProt Q9H3N8); test: Displacement of [3H]histamine from human histamine H4 receptor expressed in HEK293 cells; format: cell-based
[2] = AUC (0 to t) in mouse at 20 mg/kg, sc; format: ADME, organism-based; design: dose 20 mg/kg, route subcutaneous; details: plasma
Liver microsomes [3] = test: Metabolic stability in rat liver microsomes; format: ADME, Microsome
[4] = Oral bioavailability in mouse at 20 mg/kg, sc; format: ADME, organism-based; details: in vivo, subcutaneous
Histamine H4 receptor [5] = target: T2, Histamine H4 receptor (Rattus norvegicus, UniProt Q91ZY1); test: Antagonist activity at rat histamine H4 receptor expressed in HEK293 cells assessed as inhibition of histamine-induced intracellular calcium elevation by FLIPR assay; format: functional, cell-based
Histamine H4 receptor [6] = target: T2, Histamine H4 receptor; test: Displacement of [3H]histamine from rat histamine H4 receptor expressed in HEK293 cells; format: cell-based
[7] = Cmax in mouse at 20 mg/kg, sc; format: ADME, organism-based; design: dose 20 mg/kg, route subcutaneous; details: in vivo
Cytochrome P450 2D6 = Cytochrome P450 2D6 (Homo sapiens, UniProt P10635); test: Inhibition of CYP2D6 upto 10 uM; format: ADME
[8] = Tmax in mouse at 5 mg/kg, iv; format: ADME, organism-based; design: dose 5 mg/kg, route intravenous; details: in vivo
[9] = Metabolic stability in mouse liver microsomes; format: ADME, Microsome
Histamine H4 receptor [10] = target: T3, Histamine H4 receptor (Mus musculus, UniProt Q91ZY2); test: Antagonist activity at mouse histamine H4 receptor expressed in HEK293 cells assessed as inhibition of histamine-induced intracellular calcium elevation by FLIPR assay; format: functional, cell-based
T3 sequence (Q91ZY2 whole entry): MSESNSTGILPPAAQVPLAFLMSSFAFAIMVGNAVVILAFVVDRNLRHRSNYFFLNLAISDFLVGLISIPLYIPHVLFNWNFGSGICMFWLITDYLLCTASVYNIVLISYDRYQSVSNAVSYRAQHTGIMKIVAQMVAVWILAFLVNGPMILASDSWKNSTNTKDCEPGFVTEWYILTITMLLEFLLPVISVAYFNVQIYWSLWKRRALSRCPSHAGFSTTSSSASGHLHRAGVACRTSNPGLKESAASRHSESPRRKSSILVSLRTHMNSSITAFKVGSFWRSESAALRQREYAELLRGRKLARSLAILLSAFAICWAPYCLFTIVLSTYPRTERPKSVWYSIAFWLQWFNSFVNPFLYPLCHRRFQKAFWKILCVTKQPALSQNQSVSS

[11] = AUC (0 to t) in mouse at 5 mg/kg, iv; format: ADME, organism-based; design: dose 5 mg/kg, route intravenous; details: plasma
Mus musculus [12] = test: (§1) Plasma clearance in mouse at 5 mg/kg, iv; format: ADME, organism-based; design: dose 5 mg/kg, route intravenous; details: in vivo
Cytochrome P450 3A4 = Cytochrome P450 3A4 (Homo sapiens, UniProt P08684); test: Inhibition of CYP3A4 upto 10 uM; format: ADME
[13] = Protein binding in human; format: ADME, organism-based; details: in vivo, read-out: PB (converted)
[14] = AUC (0 to infinity) in mouse at 20 mg/kg, sc; format: ADME, organism-based; design: time infinity, dose 20 mg/kg, route subcutaneous; details: plasma
[15] = AUC (0 to infinity) in mouse at 5 mg/kg, iv; format: ADME, organism-based; design: time infinity, dose 5 mg/kg, route intravenous; details: plasma
Histamine H4 receptor [16] = target: T1, Histamine H4 receptor; details: HEK293
Cytochrome P450 2C9 = Cytochrome P450 2C9 (Homo sapiens, UniProt P11712); test: Inhibition of CYP2C9 upto 10 uM; format: ADME
Liver microsomes [17] = test: Metabolic stability in human liver microsomes; format: ADME, Microsome
[18] = Half life in mouse at 5 mg/kg, iv; format: ADME, organism-based; design: dose 5 mg/kg, route intravenous; details: in vivo
[19] = Cmax in mouse at 5 mg/kg, iv; format: ADME, organism-based; design: dose 5 mg/kg, route intravenous; details: in vivo
[20] = Protein binding in rat; format: ADME, organism-based; details: in vivo, read-out: PB (converted)
[21] = Tmax in mouse at 20 mg/kg, sc; format: ADME, organism-based; design: dose 20 mg/kg, route subcutaneous; details: in vivo
[22] = Half life in mouse at 20 mg/kg, sc; format: ADME, organism-based; design: dose 20 mg/kg, route subcutaneous; details: in vivo
[23] = Terminal volume of distribution in mouse at 5 mg/kg, iv; format: ADME, organism-based; design: dose 5 mg/kg, route intravenous; details: in vivo, read-out: Vbeta
[24] = Fractional bioavailability in rat at 5 mg/kg, iv and 5 mg/kg, po; format: ADME, organism-based; details: in vivo
[25] = as §1; format: ADME, organism-based; design: dose 5 mg/kg, route intravenous; details: plasma
Rattus norvegicus = test: Antinociceptive efficacy in ip dosed spinal nerve ligated Sprague-Dawley rat assessed as reduction of neuropathic pain in paw; format: functional
BMMC = test: Blockade of histamine-induced morphological changes in BALB/c mouse BMMC by flow cytometry; format: functional, cell-based
[26] = Selectivity ratio of Ki for human histamine H4 receptor to Ki for histamine H1 receptor
[27] = Half life in rat at 10 mg/kg, iv; format: ADME, organism-based; design: dose 10 mg/kg, route intravenous; details: in vivo
[28] = Selectivity ratio of Ki for human histamine H4 receptor to Ki for 5HT2A receptor
[29] = Fractional bioavailability in rat at 10 mg/kg, iv and 10 mg/kg, po; format: ADME, organism-based; details: in vivo
[30] = Selectivity ratio of Ki for human histamine H4 receptor to Ki for dopamine D2 receptor
[31] = Terminal volume of distribution in rat at 10 mg/kg, iv; format: ADME, organism-based; design: dose 10 mg/kg, route intravenous; details: in vivo, read-out: Vbeta
Mus musculus [32] = test: Antiinflammatory activity against ip dosed BALB/c mouse assessed as inhibition of zymosan-induced peritonitis after 2 hrs pretreated 30 mins before zymosan challenge; format: functional
Homo sapiens = species: Homo sapiens; test: Selectivity ratio of Ki for human histamine H4 receptor to Ki for human histamine H3 receptor
[33] = Ratio of drug level in brain to plasma in rat at 10 mg/kg, iv after 30 mins; format: ADME, organism-based; design: dose 10 mg/kg, route intravenous
[34] = Selectivity ratio of Ki for human histamine H4 receptor to Ki for histamine H2 receptor
[35] = Selectivity ratio of Ki for human histamine H4 receptor to Ki for 5HT1D receptor
[36] = Blood clearance in rat at 10 mg/kg, iv; format: ADME, organism-based; design: dose 10 mg/kg, route intravenous; details: whole blood
[37] = Selectivity ratio of Ki for human histamine H4 receptor to Ki for 5HT1A receptor
Mus musculus [38] = test: Inhibition of clobenpropit-induced itching in ip dosed CD1/ICR mouse assessed as blockade of scratching in hind paw for 25 mins pretreated 30 mins before clobenpropit challenge; format: functional
[39] = Selectivity ratio of Ki for human histamine H4 receptor to Ki for adrenergic alpha1 receptor
[40] = Blood clearance in mouse at 5 mg/kg, iv; format: ADME, organism-based; design: dose 5 mg/kg, route intravenous; details: whole blood

Sequence of Cytochrome P450 2C9 (P11712 whole entry): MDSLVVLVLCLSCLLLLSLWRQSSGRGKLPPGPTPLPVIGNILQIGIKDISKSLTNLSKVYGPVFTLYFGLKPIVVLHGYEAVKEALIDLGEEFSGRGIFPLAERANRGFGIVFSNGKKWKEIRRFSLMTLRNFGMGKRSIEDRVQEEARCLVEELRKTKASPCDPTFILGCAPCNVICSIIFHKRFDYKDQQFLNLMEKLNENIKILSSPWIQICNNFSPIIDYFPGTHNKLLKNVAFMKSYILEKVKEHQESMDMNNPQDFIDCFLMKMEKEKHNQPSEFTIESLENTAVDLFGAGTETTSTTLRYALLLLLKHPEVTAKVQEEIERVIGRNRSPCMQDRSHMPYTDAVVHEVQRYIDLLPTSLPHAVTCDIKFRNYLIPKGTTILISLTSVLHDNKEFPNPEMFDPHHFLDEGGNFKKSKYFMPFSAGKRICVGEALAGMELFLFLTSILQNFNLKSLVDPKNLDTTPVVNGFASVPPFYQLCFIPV
Sequence of Cytochrome P450 3A4 (P08684 whole entry): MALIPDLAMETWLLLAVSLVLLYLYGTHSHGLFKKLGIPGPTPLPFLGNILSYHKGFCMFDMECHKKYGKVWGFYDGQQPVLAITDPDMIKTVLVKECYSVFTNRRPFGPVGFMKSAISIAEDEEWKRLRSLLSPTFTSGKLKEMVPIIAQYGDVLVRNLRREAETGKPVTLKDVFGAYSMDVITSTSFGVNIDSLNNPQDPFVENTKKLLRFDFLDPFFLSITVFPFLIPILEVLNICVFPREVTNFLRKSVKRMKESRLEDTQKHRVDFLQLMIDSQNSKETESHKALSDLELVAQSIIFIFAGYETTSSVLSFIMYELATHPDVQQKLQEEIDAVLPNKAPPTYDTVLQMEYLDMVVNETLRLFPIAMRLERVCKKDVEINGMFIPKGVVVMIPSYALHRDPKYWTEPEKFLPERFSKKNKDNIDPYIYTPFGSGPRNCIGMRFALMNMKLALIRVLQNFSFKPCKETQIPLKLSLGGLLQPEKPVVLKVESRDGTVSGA
T2 sequence (Q91ZY1 whole entry): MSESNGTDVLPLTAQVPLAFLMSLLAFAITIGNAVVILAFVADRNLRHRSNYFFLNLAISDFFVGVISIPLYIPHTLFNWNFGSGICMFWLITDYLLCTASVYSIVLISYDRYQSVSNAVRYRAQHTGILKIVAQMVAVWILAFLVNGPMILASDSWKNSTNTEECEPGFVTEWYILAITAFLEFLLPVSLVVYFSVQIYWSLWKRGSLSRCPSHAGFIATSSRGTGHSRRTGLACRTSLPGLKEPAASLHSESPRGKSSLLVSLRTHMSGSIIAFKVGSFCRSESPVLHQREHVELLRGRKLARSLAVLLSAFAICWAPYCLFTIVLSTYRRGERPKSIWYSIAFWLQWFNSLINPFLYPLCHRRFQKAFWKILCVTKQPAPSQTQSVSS
T1 sequence (Q9H3N8 whole entry): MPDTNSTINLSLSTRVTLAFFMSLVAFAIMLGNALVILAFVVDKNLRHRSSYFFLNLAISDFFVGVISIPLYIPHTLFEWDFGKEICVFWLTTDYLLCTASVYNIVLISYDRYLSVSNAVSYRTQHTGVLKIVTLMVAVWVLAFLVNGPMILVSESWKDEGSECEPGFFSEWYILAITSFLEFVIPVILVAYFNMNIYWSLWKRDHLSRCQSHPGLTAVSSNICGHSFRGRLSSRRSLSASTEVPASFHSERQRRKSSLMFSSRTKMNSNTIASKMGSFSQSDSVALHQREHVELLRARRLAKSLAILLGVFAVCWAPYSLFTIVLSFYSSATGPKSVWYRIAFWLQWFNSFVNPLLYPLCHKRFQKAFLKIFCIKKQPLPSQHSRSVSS
Sequence of Cytochrome P450 2D6 (P10635 whole entry): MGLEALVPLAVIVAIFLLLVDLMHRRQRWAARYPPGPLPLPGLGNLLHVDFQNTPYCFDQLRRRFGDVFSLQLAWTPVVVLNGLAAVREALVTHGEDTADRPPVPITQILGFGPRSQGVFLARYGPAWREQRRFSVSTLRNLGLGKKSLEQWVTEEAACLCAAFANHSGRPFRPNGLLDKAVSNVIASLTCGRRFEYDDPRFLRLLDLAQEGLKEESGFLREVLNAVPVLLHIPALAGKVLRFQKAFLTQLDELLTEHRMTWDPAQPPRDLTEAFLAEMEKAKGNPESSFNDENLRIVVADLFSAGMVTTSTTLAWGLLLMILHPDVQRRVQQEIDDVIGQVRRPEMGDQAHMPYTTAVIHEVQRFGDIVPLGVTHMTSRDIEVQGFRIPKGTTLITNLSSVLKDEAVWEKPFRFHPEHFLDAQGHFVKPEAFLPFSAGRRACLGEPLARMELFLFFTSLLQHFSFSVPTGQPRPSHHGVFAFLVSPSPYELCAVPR

SMILES | AUC(0-t) [2] [µM·h] | Stability (Liver microsomes [3]) [pmol/min/mg] | bioavailability [4] [%] | EC50 (Histamine H4 receptor [5]) [nM] | Ki (Histamine H4 receptor [6]) [nM] | Cmax [7] [nM] | Activity (Cytochrome P450 2D6) | Tmax [8] [min] | Stability [9] [pmol/min/mg] | EC50 (Histamine H4 receptor [10]) [nM] | AUC(0-t) [11] [µM·h] | Activity (Cytochrome P450 3A4) | fraction unbound [13] | AUC(0-inf) [14] [µM·h] | AUC(0-inf) [15] [µM·h] | pKb (Histamine H4 receptor [16]) | Activity (Cytochrome P450 2C9) | Stability (Liver microsomes [17]) [pmol/min/mg] | half-life [18] [min] | fraction unbound [20] | other results
O=C(c1cc2cc(Cl)ccc2[nH]1)N1CCNCC1 | 11.8 | 61.4 | 0 | 30.9 | 3.98 | 2000 | Not Active | 30 | 31.6 | 17.8 | 3.03 | Not Active | 0.42 | 11.8 | 3.04 | 7.74 | Not Active | 26.6 | 97.8 | 0.35 | Ki (Histamine H4 receptor [1]; read-out: pKi (converted)): 25.7 nM; Activity (Mus musculus [12]): Not Active; Cmax [19]: 1120 nM; Tmax [21]: 2 h; half-life [22]: 51.6 min
CN1CCN(C(=O)c2cc3cc(Cl)ccc3[nH]2)CC1 [JNJ-7777120] | 2.79 | 179 | 77.6 | – | – | 500 | Not Active | 6 | 143 | – | 0.9 | Not Active | 0.23 | 2.79 | 0.9 | – | Not Active | 19 | 22.8 | 0.28 | Vd [23]: 11 L/kg; bioavailability [24]: 24.1%; clearance [25]: 334 mL/min/kg; ED50 (Rattus norvegicus): 217 µmol/kg; Cmax [19]: 2220 nM; Activity (BMMC): Active; Tmax [21]: 0.5 h; half-life [22]: 58.2 min
Nc1nc2c(c(N3CCNCC3)n1)CCCc1ccccc1-2 | – | 95.4 | – | 14.8 | 7.59 | – | Not Active | – | 14 | 18.2 | – | Not Active | 0.56 | – | – | 7.13 | Not Active | 14.5 | 294 | 0.42 | Ki (Histamine H4 receptor [1]; read-out: Ki): 71 nM; Ratio Ki [26]: > 93; half-life [27]: 132 min; Vd [23]: 88.9 L/kg; Ratio Ki [28]: > 185; bioavailability [29]: 37%; bioavailability [24]: 33%; Ratio Ki [30]: > 140; Vd [31]: 19.9 L/kg; ED50 (Mus musculus [32]): 21 µmol/kg; Ratio Ki (Homo sapiens): 52; Kp at 0.5 h [33]: 2.1; Ratio Ki [34]: > 130; Ratio Ki [35]: 17; clearance [36]: 102 mL/min/kg; Ratio Ki [37]: 13; ED50 (Mus musculus [38]): > 72 µmol/kg; Activity (BMMC): Active; Ratio Ki [39]: 110; clearance [40]: 378 mL/min/kg
